Experimental data published in publication PMC8345219 (Cancers, 2021).

Assays:
[1] = system: HEK293 cells stably transfected with CMKLR1-eYFP; assay: Resazurin-based cell viability assay, HEK293-CMKLR1; conditions: Homo sapiens; HEK293-CMKLR1, 72 h; read-out: IC50 (toxicity)
Experimental: (§1) HEK293 cells stably transfected with CMKLR1-eYFP, empty HEK293 cells (15,000 cells in 100 µL suspension/well), or HMEC-1 cells (5000 cells in 100 µL suspension/well) in their respective cell culture media were seeded in 96 well plates (coated with poly D-lysine for HEK cells) and incubated at standard conditions overnight. Afterward, cells were incubated with peptides or MTX dissolved in cell culture media, and a medium without peptides was used as a control. […] Ethanol or media was removed and a 50 µL resazurin-based in vitro toxicology assay kit (Sigma-Aldrich, St. Lous, MO, USA) in cell culture media (1:10) was added to each well. After 1 h incubation time, the conversion of the resazurin was detected by measuring the fluorescence intensity at λem = 590 nm. All experiments were performed in duplicates and each experiment was repeated at least three times. Nonlinear regression was calculated using GraphPad Prism 5, curves were normalized to untreated and ethanol-treated cells.

[2] = system: untransfected HEK293 cells; assay: Resazurin-based cell viability assay, untransfected HEK293; conditions: Homo sapiens; HEK293 cells devoid of CMKLR1, 72 h; read-out: IC50 (toxicity)
Experimental: as §1

[3] = system: HMEC-1 cells; assay: Resazurin-based cell viability assay, HMEC-1; conditions: Homo sapiens; HMEC-1 cells endogenously expressing CMKLR1, 72 h; read-out: IC50 (toxicity)
Experimental: as §1

CN(Cc1cnc2nc(N)nc(N)c2n1)c1ccc(C(=O)N[C@@H](CCC(=O)O)C(=O)O)cc1 [MTX, Methotrexate, reference compound]
IC50 [1]: 471 nM
IC50 [2]: 373 nM
IC50 [3]: 10000 nM
